pEC50: −log10 of the molar value.
Experiments:
[1] = tested on: male ob/ob mice; test: ob/ob hypoglycemia test; assay type: in vivo; settings: oral gavage once a day for three days, blood glucose lowering, calculated on day 3
Experimental: The antidiabetic activity is indicated in vivo e.g. in the ob/ob hypoglycemia test in male ob/ob mice, given 1 to 200 mg/kg of drug. The mice, approximately 2 to 3 months of age, weighing about 30 g, are kept in a room at a controlled ambient temperature of 22° C and a 12/12 hour light/dark cycle for at least seven days before the screen and then during testing. In the ob/ob screen, Purina rodent chow and water are available ad libitum. For each screen, mice are matched and placed in treatment groups (six mice per group) on the basis of initial blood glucose levels the day prior to screening (day 0). Animals are dosed once a day for three days with either vehicle (carboxymethylcellulose 0.5 %, with Tween-80 0.2 %) or test compound in vehicle. The animals receive 0.1 ml/10 g body weight administered orally by gavage. On day 1, blood glucose levels are sampled from the tip of the tail at 2 and 4 hours post-dose. On day 3, blood glucose levels are sampled at 2, 4 and 8 hours post-dose. Blood glucose levels are measured by the glucose oxidase method (YSI Model 27, Yellow Springs, Ohio). […] A systematic, quantitative procedure for assessing the behavioral and physiological state of the mouse, in Psychopharmacologica 12 (1968) 222-257.
Efficacy for glucose lowering is determined by comparing glucose levels of control animals to those of treated animals. […]

[2] = tested on: rat muscle cell line (L6 myocytes); test: L6 myocyte screen (glucose utilization); assay type: cell-based; settings: differentiated L6 myocytes, 20 hours treatment, DMEM with 15 mM glucose, concentration producing 50 % of maximum response versus control, read-out: EC50 in the L6 myocyte test
Experimental: This is indicated in standard tests, e.g. in vitro by the L6 myocyte screen in a rat muscle cell line:
The L6 myocyte screen determines the direct effects of 1 to 300 µM concentrations of the agents on glucose utilization in the rat muscle cell line. Rat L6 myoblasts (American Type Culture Collection) are maintained in Dulbecco's modified Eagle's medium (DMEM, Gibco) containing 5 mM glucose and 10 % calf serum supplement. The L6 myoblasts are plated in 96-well microtiter plates at a density of 3000 cells/well. Differentiated myocytes are used in experiments on the 11th or 13th day after plating. All test agents are dissolved in 1 % dimethylsulfoxide (DMSO) in serum-free testing media. The DMSO has no effect on glucose utilization. Each experiment includes the following internal controls: water, glucose standard (300 mg/dl), media blank, media control, ciglitazone standard (30 µM) and an insulin dose-response curve (0.03 - 1 µM). All compounds are tested in quadruplicate in each experiment at concentrations of 1, 3, 10, 30,100 and 300 µM. The L6 cells are treated with test compound and DMEM containing 15 mM glucose for 20 hours. Glucose utilization is assessed by measurement of glucose remaining in the media using a glucose oxidase assay (Ciba-Corning #S1004B). The EC50 is the concentration of the test agent estimated to produce 50 % of the maximum response versus control.

O=C1CC[C@]2(c3ccc(Cl)c(Cl)c3)O[C@H](COc3ccc(Cl)cc3)CN12 (racemic) [Example 3, (±)-trans-2-[(4-Chlorophenoxy)methyl]-7a-(3,4-dichlorophenyl)-2,3,7,7a-tetrahydropyrrolo[2,1-b]oxazol-5(6H)-one]
EC50 in the ob/ob hypoglycemia test [1]: about 62 mg/kg
pEC50 [2]: ~4.85

O=C1CC[C@]2(c3ccc(Cl)c(Cl)c3)O[C@H](COc3ccc(Cl)cc3)CN12 [Example 1, (-)-trans-2S-[(4-Chlorophenoxy)methyl]-7A-(3,4-dichlorophenyl)-2,3,7,7a-tetrahydropyrrolo[2.1-b]oxazol-5(6H)-one]
pEC50 [2]: ~5.00

Reference: patent EP0702015B1, “Bicyclic oxazole and thiazole substituted ethers” (Novartis AG, priority 1994, dated 1996)
